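Values below derive from 48-hour exposures of cells grown in 96-well plates, with endpoints linearly interpolated between the two concentrations bracketing the appropriate inhibition level. Here, GI50 denotes the concentration required for 50% inhibition of growth.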 Activity calls are given as the source filed them. Rule as the data show it: active = GI50 up to about 1.1 µM and inactive = higher.
Tests used:
Test in all cases: DTP human tumour cell line panel, 48 h
786-0 = test system: 786-0
A498 = test system: A498
A549 = test system: A549
ACHN = test system: ACHN
BT-549 = test system: BT-549
CAKI-1 = test system: CAKI-1
CCRF-CEM = test system: CCRF-CEM
COLO 205 = test system: COLO 205
DU-145 = test system: DU-145
EKVX = test system: EKVX
HCT-116 = test system: HCT-116
HCT-15 = test system: HCT-15
HL-60 = test system: HL-60
HOP-62 = test system: HOP-62
HOP-92 = test system: HOP-92
HT-29 = test system: HT-29
Hs-578T = test system: Hs-578T
IGROV-1 = test system: IGROV-1
K562 = test system: K562
KM12 = test system: KM12
LOX IMVI = test system: LOX IMVI
M14 = test system: M14
MCF7 = test system: MCF7
MDA-MB-231 = test system: MDA-MB-231
MDA-MB-435 = test system: MDA-MB-435
MDA-N = test system: MDA-N
MOLT-4 = test system: MOLT-4
Malme-3M = test system: Malme-3M
NCI-H226 = test system: NCI-H226
NCI-H23 = test system: NCI-H23
NCI-H460 = test system: NCI-H460
NCI-H522 = test system: NCI-H522
NCI/ADR-RES = test system: NCI/ADR-RES
OVCAR-3 = test system: OVCAR-3
OVCAR-4 = test system: OVCAR-4
OVCAR-5 = test system: OVCAR-5
OVCAR-8 = test system: OVCAR-8
PC-3 = test system: PC-3
RPMI-8226 = test system: RPMI-8226
RXF 393 = test system: RXF 393
SF-268 = test system: SF-268
SF-295 = test system: SF-295
SF-539 = test system: SF-539
SK-MEL-28 = test system: SK-MEL-28
SK-MEL-2 = test system: SK-MEL-2
SK-MEL-5 = test system: SK-MEL-5
SK-OV-3 = test system: SK-OV-3
SN12C = test system: SN12C
SNB-19 = test system: SNB-19
SNB-75 = test system: SNB-75
SR = test system: SR
SW-620 = test system: SW-620
T47D = test system: T47D
TK-10 = test system: TK-10
U-251 = test system: U-251
UACC-257 = test system: UACC-257
UACC-62 = test system: UACC-62
UO-31 = test system: UO-31

O=C(O)CN1C(=O)OC(c2ccccc2)C1=O (stereo not given)
GI50 (786-0): > 100 µM (inactive)
GI50 (A498): > 100 µM (inactive)
GI50 (A549): > 100 µM (inactive)
GI50 (ACHN): > 100 µM (inactive)
GI50 (BT-549): > 100 µM (inactive)
GI50 (CAKI-1): > 100 µM (inactive)
GI50 (CCRF-CEM): > 100 µM (inactive)
GI50 (COLO 205): > 100 µM (inactive)
GI50 (DU-145): > 100 µM (inactive)
GI50 (EKVX): > 100 µM (inactive)
GI50 (HCT-116): > 100 µM (inactive)
GI50 (HCT-15): > 100 µM
GI50 (HL-60): > 100 µM (inactive)
GI50 (HOP-62): > 100 µM (inactive)
GI50 (HOP-92): > 100 µM (inactive)
GI50 (HT-29): > 100 µM (inactive)
GI50 (Hs-578T): > 100 µM (inactive)
GI50 (IGROV-1): > 100 µM (inactive)
GI50 (K562): > 100 µM (inactive)
GI50 (KM12): > 100 µM (inactive)
GI50 (LOX IMVI): > 100 µM (inactive)
GI50 (M14): > 100 µM (inactive)
GI50 (MCF7): > 100 µM (inactive)
GI50 (MDA-MB-231): > 100 µM (inactive)
GI50 (MDA-MB-435): > 100 µM (inactive)
GI50 (MDA-N): > 100 µM (inactive)
GI50 (MOLT-4): > 100 µM (inactive)
GI50 (Malme-3M): > 100 µM (inactive)
GI50 (NCI-H226): > 100 µM (inactive)
GI50 (NCI-H23): > 100 µM (inactive)
GI50 (NCI-H460): > 100 µM (inactive)
GI50 (NCI-H522): > 100 µM (inactive)
GI50 (NCI/ADR-RES): > 100 µM (inactive)
GI50 (OVCAR-3): > 100 µM (inactive)
GI50 (OVCAR-4): > 100 µM (inactive)
GI50 (OVCAR-5): > 100 µM (inactive)
GI50 (OVCAR-8): > 100 µM (inactive)
GI50 (PC-3): > 100 µM (inactive)
GI50 (RPMI-8226): > 100 µM (inactive)
GI50 (RXF 393): > 100 µM (inactive)
GI50 (SF-268): > 100 µM (inactive)
GI50 (SF-295): > 100 µM (inactive)
GI50 (SF-539): > 100 µM (inactive)
GI50 (SK-MEL-28): > 100 µM (inactive)
GI50 (SK-MEL-2): > 100 µM (inactive)
GI50 (SK-MEL-5): > 100 µM (inactive)
GI50 (SK-OV-3): > 100 µM (inactive)
GI50 (SN12C): > 100 µM (inactive)
GI50 (SNB-19): > 100 µM (inactive)
GI50 (SNB-75): > 100 µM (inactive)
GI50 (SR): > 100 µM (inactive)
GI50 (SW-620): > 100 µM (inactive)
GI50 (T47D): > 100 µM (inactive)
GI50 (TK-10): > 100 µM (inactive)
GI50 (U-251): > 100 µM (inactive)
GI50 (UACC-257): > 100 µM (inactive)
GI50 (UACC-62): > 100 µM (inactive)
GI50 (UO-31): > 100 µM (inactive)

NC(C(=O)O)C(O)c1c[nH]cn1 (stereo not given)
GI50 (786-0): > 100 µM (inactive)
GI50 (A498): > 100 µM (inactive)
GI50 (A549): > 100 µM (inactive)
GI50 (ACHN): > 100 µM (inactive)
GI50 (BT-549): > 100 µM (inactive)
GI50 (CAKI-1): > 100 µM (inactive)
GI50 (CCRF-CEM): > 100 µM (inactive)
GI50 (COLO 205): > 100 µM (inactive)
GI50 (DU-145): > 100 µM (inactive)
GI50 (EKVX): > 100 µM (inactive)
GI50 (HCT-116): > 100 µM (inactive)
GI50 (HCT-15): > 100 µM
GI50 (HL-60): > 100 µM (inactive)
GI50 (HOP-62): > 100 µM (inactive)
GI50 (HOP-92): > 100 µM (inactive)
GI50 (HT-29): > 100 µM (inactive)
GI50 (Hs-578T): > 100 µM (inactive)
GI50 (IGROV-1): > 100 µM (inactive)
GI50 (K562): > 100 µM (inactive)
GI50 (KM12): > 100 µM (inactive)
GI50 (LOX IMVI): > 100 µM (inactive)
GI50 (M14): > 100 µM (inactive)
GI50 (MCF7): > 100 µM (inactive)
GI50 (MDA-MB-231): > 100 µM (inactive)
GI50 (MDA-MB-435): > 100 µM (inactive)
GI50 (MDA-N): > 100 µM (inactive)
GI50 (MOLT-4): > 100 µM (inactive)
GI50 (Malme-3M): > 100 µM (inactive)
GI50 (NCI-H226): > 100 µM (inactive)
GI50 (NCI-H23): > 100 µM (inactive)
GI50 (NCI-H460): > 100 µM (inactive)
GI50 (NCI-H522): > 100 µM (inactive)
GI50 (NCI/ADR-RES): > 100 µM (inactive)
GI50 (OVCAR-3): > 100 µM (inactive)
GI50 (OVCAR-4): > 100 µM (inactive)
GI50 (OVCAR-5): > 100 µM (inactive)
GI50 (OVCAR-8): > 100 µM (inactive)
GI50 (PC-3): > 100 µM (inactive)
GI50 (RPMI-8226): > 100 µM (inactive)
GI50 (RXF 393): > 100 µM (inactive)
GI50 (SF-268): > 100 µM (inactive)
GI50 (SF-295): > 100 µM (inactive)
GI50 (SF-539): > 100 µM (inactive)
GI50 (SK-MEL-28): > 100 µM (inactive)
GI50 (SK-MEL-2): > 100 µM (inactive)
GI50 (SK-MEL-5): > 100 µM (inactive)
GI50 (SK-OV-3): > 100 µM (inactive)
GI50 (SN12C): > 100 µM (inactive)
GI50 (SNB-19): > 100 µM (inactive)
GI50 (SNB-75): > 100 µM (inactive)
GI50 (SR): > 100 µM (inactive)
GI50 (SW-620): > 100 µM (inactive)
GI50 (T47D): > 100 µM (inactive)
GI50 (TK-10): > 100 µM (inactive)
GI50 (U-251): > 100 µM (inactive)
GI50 (UACC-257): > 100 µM (inactive)
GI50 (UACC-62): > 100 µM (inactive)
